What was measured:
Format in all cases: in vivo, mouse
spinal cord of EAE mice [1] = test: EAE, inflammatory mediators in spinal cord protein extracts (ELISA); conditions: ORY-2001 0.5 mg/kg; for IFNγ and IP-10 levels in spinal cord / IL-1β levels in spinal cord: disease peak, FTY720 1.0 mg/kg
Description: For mechanistic studies in the EAE model, animals were divided into two groups, and samples were collected on day 26 post-immunization (sub-chronic phase), 3 days after the last dose, or on day 17 post-immunization for evaluating the effector phase. For this, mice were euthanized by intracardiac perfusion with saline (0.9%NaCl in H2O MilliQ) after pentobarbital anesthesia (Doletal), and blood samples, spleen, draining lymph nodes (DLNs: cervical, inguinal and axillary), brain, and spinal cord were removed. Serum samples were used for autoantibodies determination. Single-cell suspensions were obtained from spleen or pooled DLNs and used for the determination of cell number and auto-reactive and inflammatory responses, as described later. Brain and spinal segments of the cervical and lumbar regions were prepared separately and processed for RNA isolation, protein extraction, and histopathological analysis. Proteins were extracted from cervical and lumbar segments of spinal cord and brain from EAE mice via homogenization (50 mg tissue/mL) in lysis buffer (50 mM Tris-HCl, pH 7.4, 0.5 mM DTT, and 10 µg/mL proteinase inhibitors PMSF, pepstatin, and leupeptin). Samples were centrifuged (20.000× g, 15 min, 4 °C), and the supernatants were assayed for protein concentration (using Bradford method) and for cytokine/chemokine contents by using specific sandwich ELISAs according to manufacturer’s recommendations (BD Bioscience, Heidelberg, Germany and Peprotech, London, UK). In the TMEV model on day 86 after infection, mice were anesthetized and perfused transcardially, as described above. Spinal cords were obtained via extrusion with saline and prepared for further study.

spleen cells of EAE mice = test: EAE, autoreactive response of spleen cells from treated mice (proliferation, cytokines/chemokines); conditions: ORY-2001 0.5 mg/kg; for IFNγ and IL-4 in Con A-stimulated spleen cells: FTY720 1.0 mg/kg
Description: Spleen and draining lymph node (DLN) cells (10^6/mL) collected from EAE mice were stimulated in complete medium (RPMI 1640 containing 10% FBS, 50 µM 2-ME, 2 mM L-glutamine, 100 U/mL penicillin, and 100 µg/mL streptomycin) with 15 µM MOG35–55. After 48 h, cytokine (IL-4, TNF-alpha, IFN-gamma) and chemokine (IP-10 and MCP1) contents in culture supernatants were determined by sandwich ELISAs using capture/biotinylated detection Abs according to the manufacturer’s recommendations. The antibodies used are indicated in Supplementary Materials Table S4. Cell proliferation was evaluated after 72 h by adding 2.5 µCi/mL tritiated-thymidine during the last 8 h of culture and determining cpm incorporation in a Microbeta counter. We used T cell activation with an anti-CD3 […] antibody (1 µg/mL) or ConA (2.5 µg/mL) as controls of unspecific polyclonal stimulation.

brain of EAE mice = test: Microarray, brain of EAE mice, effector phase (E), 24 h after treatment; ORY-2001 0.5 mg/kg, FTY720 1.0 mg/kg
Description: (§1) We evaluated differences in gene expression induced by the treatment using real-time PCR and by microarray hybridization analysis. First, total RNA was isolated from brain and spinal cord segments from EAE mice using Qiazol™ and the RNeasy MiniKit™ extraction kit (Qiagen). Evaluation of RNA quality was performed with the Agilent 2100 bioanalyzer and NanoDrop™ ND-1000 (Thermo Scientific, Dartford, Kent, UK). After DNAse I treatment, RNA (1 µg/sample) was reverse transcribed using RevertAid First strand cDNA Synthesis kit (Fermentas) and random hexamer primers. For evaluating the expression of the inflammatory markers TNFα, IL-1β, IP10, IL-4, and CCL5, real time PCR was performed by using iQ SYBR Green Supermix (Bio-Rad, Feldkirchen, Germany) according to manufacturer’s instructions in a BIORAD CFX96 thermal cycler. Primer sequences and PCR conditions are indicated in Supplementary Materials Table S3. […]
(§2) For the gene expression studies, data from microarray assays were normalized by modified nonlinear Q-splines normalization method and Log2(Sample/Vehicle) values calculated without background correction (which permits robust selection of differentially expressed genes yet may lead to sub-estimation of the magnitude of change for genes expressed near the detection limit). Differential expression was assessed with the proprietary Polyphemus software using robust statistics on the average technical replicates (3 replicates/gene oligo datapoint) after removing eventual outlier points (caused by dust or array imperfections). […] The p values were calculated after outlier elimination based on the absolute value of the regularized t-statistics, which uses a Bayesian framework to derive the algorithm, using internal replicated controls to assess the minimum technical variability of the process. Correlation between gene expression changes induced by different treatments was analysed by calculating the Pearson correlation coefficient r using the Log2(Treatment/Veh) values for all genes expressed above background level (n). […]

spinal cord of EAE mice [2] = test: Microarray, spinal cord of EAE mice, effector phase (E), 24 h after treatment; ORY-2001 0.5 mg/kg, FTY720 1.0 mg/kg
Description: as §1, with “S3. Microarray studies were performed by using DNA microarray oligo probes designed with Tethys, Oryzon’s proprietary software which is based on the in silico thermodynamic simulation of hybridization. Agilent probes were added for genes which yielded no probes, complying with Tethys criteria. Control probes were used to assess detection limits and range, to verify spatial homogeneity, and to determine experimental within-array variation. Microarray slides were synthesized by Agilent. Total RNA (0.5 µg) amplification and labeling with Cy3 or Cy5 was carried out using a modified Eberwine mRNA amplification procedure employing the MessageAmp™ II aRNA Amplification kit from Ambion (ThermoFisher Scientific, Oxford, UK).” for “S3.”
as §2

Structure (SMILES)	IFNγ, IL-17 and IP-10 levels in spinal cord (spinal cord of EAE mice [1]; day 26, ORY-LSD1 180 µg/kg)	IL-4 levels in spinal cord (spinal cord of EAE mice [1]; day 26, ORY-LSD1 180 µg/kg)	IFNγ and IP-10 levels in spinal cord (spinal cord of EAE mice [1])	IL-1β levels in spinal cord (spinal cord of EAE mice [1])	IP-10 and MCP-1 production induced by MOG35–55 (spleen cells of EAE mice; day 17)	MOG35–55-induced proliferation of spleen cells (spleen cells of EAE mice; day 17)	IFNγ and IL-4 in Con A-stimulated spleen cells (spleen cells of EAE mice; day 17)	TNF-alpha and MCP-1 levels, MOG35–55-specific recall response (spleen cells of EAE mice; day 26)	IFNγ, IL-17 and IP-10 levels, MOG35–55-specific recall response (spleen cells of EAE mice; day 26, ORY-LSD1 180 µg/kg)	IL-4 production by spleen cells (spleen cells of EAE mice; day 26, ORY-LSD1 180 µg/kg)	MOG35–55- and anti-CD3-stimulated proliferation of spleen lymphocytes (spleen cells of EAE mice; day 26, ORY-LSD1 180 µg/kg)	expression of pituitary markers Gh, Prl, Pomc, Cga (brain of EAE mice)	expression of Aif1, Bst2, Rgs4 and Mtap9 (spinal cord of EAE mice [2])	expression of Ogn (spinal cord of EAE mice [2])	expression of Ptpn11, Kif1b and Pik3r1 (spinal cord of EAE mice [2])	expression of Cox1 (brain of EAE mice)
Nc1nnc(CN[C@@H]2C[C@H]2c2ccc(OCc3ccccc3)cc2)o1 [ORY-2001]	no significant changes	significant increase in the levels of IL-4	this decrease did not reach significance	significantly reduced the exacerbated levels of IL-1β	significant increase in the production of the pro-inflammatory chemokines IP-10 and MCP-1	significantly reduced the MOG35–55-induced proliferation of spleen cells	neither affected such cytokines (at the time of study) nor TNF-alpha	significantly reduced the levels of TNF-alpha and MCP-1	produced equivalent levels of IFNγ, IL-17, and IP-10	increased with both treatments	reduced MOG35–55 but not anti-CD3 -stimulated proliferation	potently downregulated the pituitary markers Gh, Prl, Pomc, and Cga	downregulated Aif1	preserved the expression of Ogn	prevented the induction of Ptpn11	
CCCCCCCCc1ccc(CCC(N)(CO)CO)cc1 [FTY720, Fingolimod, reference compound]			this decrease did not reach significance	showed the same tendency			reduced the levels of IFNγ and increased IL-4 release					potently downregulated the pituitary markers Gh, Prl, Pomc, and Cga		downregulated by FTY720		induction of Cox1
